Measured values taken from patent US12492173B2, “Herbicidal substituted N-tetrazolyl aryl carboxamides” (Bayer Aktiengesellschaft, priority 2019, dated 2025).

Columns and labels:
Assay type in all cases: in vivo
Veronica persica [1] = assay: Pre-emergence herbicidal action, VERPE; design: key to Herbicidal action against VERPE: % activity: 100 = plants have died, 0 = like control plants; conditions: for herbicidal activity VERPE: scored visually after 3 weeks vs untreated controls (100% = plants have died)
Method in brief: (§1)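 Seeds sown in sandy loam in pots and covered with soil; compounds formulated as WP or EC were sprayed onto the soil surface as aqueous suspension/emulsion at 600 to 800 l/ha water with 0.2% wetting agent. Greenhouse growth; visual damage scored after 3 weeks versus untreated controls (100% = plants died, 0% = like control).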

Matricaria inodora = assay: Pre-emergence herbicidal action, MATIN; design: key to Herbicidal action against MATIN: % activity: 100 = plants have died, 0 = like control plants; conditions: for herbicidal activity MATIN: scored visually after 3 weeks vs untreated controls (100% = plants have died)
Method in brief: as §1

Avena fatua = assay: Post-emergence herbicidal action, AVEFA; design: key: % herbicidal action vs untreated; 100 = plants died, 0 = like control
Method in brief: (§2)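 Foliar application at the one-leaf stage of greenhouse-grown plants in sandy loam; compound applied as WP or EC in 600–800 l/ha water containing 0.2% wetting agent. Scores are visual percentages (0% like control, 100% plants died) taken after roughly 3 weeks.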

Viola tricolor = assay: Pre-emergence herbicidal action, VIOTR; design: key to Herbicidal action against VIOTR: % activity: 100 = plants have died, 0 = like control plants; conditions: for herbicidal activity VIOTR: scored visually after 3 weeks vs untreated controls (100% = plants have died)
Method in brief: as §1

Veronica persica [2] = assay: Post-emergence herbicidal action, VERPE; design: key: % herbicidal action vs untreated; 100 = plants died, 0 = like control
Method in brief: as §2

Polygonum convolvulus = assay: Pre-emergence herbicidal action, POLCO; conditions: for herbicidal activity POLCO: dosage 320 g/ha, scored visually after 3 weeks vs untreated controls (100% = plants have died)
Method in brief: as §1

[3] = comparative experiment, 20 g of a.i./ha
[4] = comparative experiment, post-emergence, 5 g of a.i./ha

Row | SMILES | herbicidal activity VERPE (Veronica persica [1]; dosage 320 g/ha) [%] | herbicidal activity MATIN (Matricaria inodora; dosage 320 g/ha) [%] | herbicidal action AVEFA (Avena fatua; post-emergence, dosage 80 g/ha) [%] | herbicidal activity VIOTR (Viola tricolor; dosage 320 g/ha) [%] | herbicidal action VERPE (Veronica persica [2]; post-emergence, dosage 80 g/ha) [%] | herbicidal activity POLCO (Polygonum convolvulus) [%] | herbicidal action AVEFA (Avena fatua; Dosage 80 g/ha) | herbicidal action VERPE (Veronica persica [2]; Dosage 80 g/ha) | further results
1 | Cn1nnnc1NC(=O)c1ccc(C(F)(F)F)c(C[S+](C)[O-])c1Cl (racemic) [Example 1-297] | 100 | 100 | 100 | 100 | 100 | – | – | – | Herbicidal action against MATIN (Matricaria inodora; [3]): 100
2 | Cc1c(C(=O)Nc2nnnn2C)ccc(C(F)(F)F)c1C[S+](C)[O-] (stereo not shown) [Example 1-84] | 100 | 100 | 90 | 100 | 100 | 90 | – | – | –
3 | Cc1c(C(=O)Nc2nnnn2C)ccc(C(F)(F)F)c1CS(C)(=O)=O [Example 1-85] | 100 | 100 | – | 100 | – | 90 | 80 | 100 | –
4 | CCSCc1c(C(F)(F)F)ccc(C(=O)Nc2nnnn2C)c1C [Example 1-86] | 100 | 100 | 100 | 100 | 90 | 100 | – | – | –
5 | CSCc1c(C(F)F)ccc(C(=O)Nc2nnnn2C)c1C [Example 1-107, 4-(difluoromethyl)-2-methyl-3-[(methylsulfanyl)methyl]-N-(1-methyl-1H-tetrazol-5-yl)benzamide] | 100 | 100 | – | 90 | – | 80 | 80 | 100 | –
6 | Cc1c(C(=O)Nc2nnnn2C)ccc(C(F)F)c1CS(C)(=O)=O [Example 1-109] | 80 | 90 | – | 100 | – | 90 | – | 100 | –
7 | COc1c(C(=O)Nc2nnnn2C)ccc(C(F)(F)F)c1CSC [Example 1-134] | 100 | 100 | – | 100 | – | 80 | 90 | 100 | Herbicidal action against POLCO (Polygonum convolvulus; [3]): 30; Herbicidal action against VERPE (Veronica persica [2]; [4]): 100; Herbicidal action against VERPE (Veronica persica [2]; post-emergence, dosage 80 g/ha): 100
8 | CSCc1c(C(F)(F)F)ccc(C(=O)Nc2nnnn2C)c1SC [Example 1-161] | 100 | 100 | – | 100 | – | – | 100 | 100 | –
9 | CCSCc1c(C(F)F)ccc(C(=O)Nc2nnnn2C)c1SCC [Example 1-191] | 100 | 100 | – | 100 | – | 100 | 80 | 100 | –
10 | CSCc1c(C(F)(F)F)ccc(C(=O)Nc2nnnn2C)c1F [Example 1-242] | 100 | 100 | – | 100 | – | 80 | 80 | 100 | –
11 | Cn1nnnc1NC(=O)c1ccc(C(F)(F)F)c(C[S+](C)[O-])c1F (stereo not shown) [Example 1-243] | 100 | 100 | – | 100 | – | – | 80 | 100 | –
12 | Cn1nnnc1NC(=O)c1ccc(C(F)(F)F)c(CS(C)(=O)=O)c1F [Example 1-244] | 100 | 100 | – | 100 | – | – | – | 100 | –
13 | Cc1ccc(C(=O)Nc2nnnn2C)c(Cl)c1CS(C)(=O)=O [Example 1-289] | 100 | 100 | – | 90 | – | 80 | – | 100 | –
14 | CSCc1c(C(F)(F)F)ccc(C(=O)Nc2nnnn2C)c1Cl [Example 1-296] | 100 | 100 | 90 | 100 | 100 | – | – | – | –
15 | Cn1nnnc1NC(=O)c1ccc(C(F)(F)F)c(CS(C)(=O)=O)c1Cl [Example 1-298] | 100 | 100 | 100 | 100 | 100 | – | – | – | Herbicidal action against AVEFA (Avena fatua; [4]): 60; Herbicidal action against VERPE (Veronica persica [2]; [4]): 90
16 | CCS(=O)(=O)Cc1c(C(F)(F)F)ccc(C(=O)Nc2nnnn2C)c1Cl [Example 1-301] | 100 | 100 | – | 100 | – | 100 | 100 | 100 | –
17 | C=CCSCc1c(C(F)(F)F)ccc(C(=O)Nc2nnnn2C)c1Cl [Example 1-308] | 100 | 100 | 100 | 100 | 80 | 100 | – | – | –
18 | CSCc1c(C(F)(F)F)ccc(C(=O)Nc2nnnn2C)c1Br [Example 1-380] | 100 | 100 | 100 | 100 | 100 | – | – | – | –
19 | Cn1nnnc1NC(=O)c1ccc(C(F)(F)F)c(C[S+](C)[O-])c1Br (stereo not shown) [Example 1-381] | 100 | 100 | 100 | 100 | 100 | 90 | – | – | Herbicidal action against VIOTR (Viola tricolor; [3]): 90
20 | Cn1nnnc1NC(=O)c1ccc(C(F)(F)F)c(CS(C)(=O)=O)c1Br [Example 1-382, 2-bromo-3-[(methylsulfonyl)methyl]-N-(1-methyl-1H-tetrazol-5-yl)-4-(trifluoromethyl)benzamide] | 100 | 100 | – | 100 | – | 90 | 100 | 100 | Herbicidal action against VERPE (Veronica persica [1]; [3]): 100
21 | Cn1nnnc1NC(=O)c1ccc(Cl)c(CS(C)(=O)=O)c1Cl [Example 1-561] | 90 | 90 | – | 100 | – | 100 | 90 | 100 | –
22 | CCn1nnnc1NC(=O)c1ccc(S(C)(=O)=O)c(CS(C)(=O)=O)c1C [Example 2-39] | – | – | – | – | – | – | – | 100 | herbicidal action VERPE (Veronica persica [1]; dosage 320 g/ha): 100%; herbicidal action MATIN (Matricaria inodora; dosage 320 g/ha): 100%; herbicidal action VIOTR (Viola tricolor; dosage 320 g/ha): 100%
23 | CCn1nnnc1NC(=O)c1ccc(C)c(CSC)c1Cl [Example 2-287] | 100 | 100 | – | 90 | – | – | – | 80 | –
24 | CCn1nnnc1NC(=O)c1ccc(C(F)(F)F)c(C[S+](C)[O-])c1Br (stereo not shown) [Example 2-381] | 100 | 100 | 100 | 100 | 100 | – | – | – | –
25 | CCn1nnnc1NC(=O)c1ccc(C(F)(F)F)c(CS(C)(=O)=O)c1Br [Example 2-382] | 100 | 100 | – | 100 | – | 90 | – | 100 | –
26 | CCCn1nnnc1NC(=O)c1ccc(C(F)(F)F)c(CS(=O)(=O)CC)c1C [Example 3-88] | 100 | 100 | – | 100 | – | – | 80 | 90 | –
27 | CCCn1nnnc1NC(=O)c1ccc(C(F)(F)F)c(CS(C)(=O)=O)c1OC [Example 3-136] | 100 | 100 | – | 100 | – | 80 | – | 100 | –
28 | CCCn1nnnc1NC(=O)c1ccc(C(F)(F)F)c(C[S+](C)[O-])c1Cl (stereo not shown) [Example 3-297] | 100 | 100 | 100 | 100 | 100 | – | – | – | –
29 | CCCn1nnnc1NC(=O)c1ccc(C(F)F)c(C[S+]([O-])CC)c1Cl (stereo not shown) [Example 3-324] | – | 100 | – | 100 | – | 100 | 100 | – | –
30 | CCCn1nnnc1NC(=O)c1ccc(C(F)(F)F)c(CS(=O)(=O)CC)c1Br [Example 3-385] | 100 | 100 | – | 100 | – | 80 | – | 100 | –
